# According to patent US10405547B2, “Substituted cyclic amides as herbicides” (FMC Corporation, priority 2015, dated 2019):
# Columns and labels:
# Format in all cases: in vivo
# corn (Zea mays) = assay: Test A postemergence, corn; settings: visual injury, 0 to 100 scale (0 no effect, 100 complete control), approximately 10 days
# Procedure, shortened: (§1)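 Visual injury scores (0 no effect to 100 complete control) taken about 10 days after treatment, relative to untreated plants. Treatments were directed soil spray at planting for preemergence, or foliar application to one- to two-leaf plants (2-10 cm) for postemergence, with surfactant-containing formulations in loam–sand pots.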
# [1] = tested on: pigweed (Amaranthus retroflexus); assay: Test A preemergence, pigweed; settings: 0 to 100 scale (0 no effect, 100 complete control)
# Procedure, shortened: as §1
# [2] = tested on: foxtail, giant (Setaria faberii); assay: Test A preemergence, giant foxtail; settings: 0 to 100 scale (0 no effect, 100 complete control)
# Procedure, shortened: as §1
# [3] = tested on: wheat (Triticum aestivum); assay: Test A postemergence, wheat; settings: visual injury, 0 to 100 scale (0 no effect, 100 complete control), approximately 10 days
# Procedure, shortened: as §1
# [4] = tested on: foxtail, giant (Setaria faberii); assay: Test A postemergence, giant foxtail; settings: visual injury, 0 to 100 scale (0 no effect, 100 complete control), approximately 10 days
# Procedure, shortened: as §1
# [5] = tested on: ryegrass, Italian (Lolium multiflorum); assay: Test A preemergence, Italian ryegrass; settings: 0 to 100 scale (0 no effect, 100 complete control)
# Procedure, shortened: as §1
# [6] = tested on: barnyardgrass (Echinochloa crus-galli); assay: Test A preemergence, barnyardgrass; settings: 0 to 100 scale (0 no effect, 100 complete control)
# Procedure, shortened: as §1
# [7] = tested on: ragweed (common ragweed, Ambrosia elatior); assay: Test A preemergence, ragweed; settings: 0 to 100 scale (0 no effect, 100 complete control)
# Procedure, shortened: as §1
# [8] = tested on: blackgrass (Alopecurus myosuroides); assay: Test A postemergence, blackgrass; settings: visual injury, 0 to 100 scale (0 no effect, 100 complete control), approximately 10 days
# Procedure, shortened: as §1
# [9] = tested on: ragweed (common ragweed, Ambrosia elatior); assay: Test A postemergence, ragweed; settings: visual injury, 0 to 100 scale (0 no effect, 100 complete control), approximately 10 days
# Procedure, shortened: as §1
# kochia (Kochia scoparia) [10] = assay: Test A preemergence, kochia; settings: 0 to 100 scale (0 no effect, 100 complete control)
# Procedure, shortened: as §1
# [11] = tested on: ducksalad (Heteranthera limosa); assay: Test B flooded paddy test, ducksalad; settings: applied to paddy water, visual rating after 13 to 15 days, scale 0 (no effect) to 100 (complete control)
# Procedure, shortened: (§2)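 Greenhouse pots flooded to 3 cm above soil at time of treatment received compound via the water, which stayed at that level.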
# kochia (Kochia scoparia) [12] = assay: Test A postemergence, kochia; settings: visual injury, 0 to 100 scale (0 no effect, 100 complete control), approximately 10 days
# Procedure, shortened: as §1
# [13] = tested on: barnyardgrass (Echinochloa crus-galli); assay: Test A postemergence, barnyardgrass; settings: visual injury, 0 to 100 scale (0 no effect, 100 complete control), approximately 10 days
# Procedure, shortened: as §1
# [14] = tested on: barnyardgrass (Echinochloa crus-galli); assay: Test B flooded paddy test, barnyardgrass; settings: applied to paddy water, visual rating after 13 to 15 days, scale 0 (no effect) to 100 (complete control)
# Procedure, shortened: as §2
# [15] = tested on: ryegrass, Italian (Lolium multiflorum); assay: Test A postemergence, Italian ryegrass; settings: visual injury, 0 to 100 scale (0 no effect, 100 complete control), approximately 10 days
# Procedure, shortened: as §1
# rice (Oryza sativa) = assay: Test B flooded paddy test, rice; settings: applied to paddy water, visual rating after 13 to 15 days, scale 0 (no effect) to 100 (complete control)
# Procedure, shortened: as §2
# [16] = tested on: pigweed (Amaranthus retroflexus); assay: Test A postemergence, pigweed; settings: visual injury, 0 to 100 scale (0 no effect, 100 complete control), approximately 10 days
# Procedure, shortened: as §1
# [17] = tested on: galium (catchweed bedstraw, Galium aparine); assay: Test A postemergence, galium; settings: visual injury, 0 to 100 scale (0 no effect, 100 complete control), approximately 10 days
# Procedure, shortened: as §1
# [18] = tested on: sedge, umbrella (small-flower umbrella sedge, Cyperus difformis); assay: Test B flooded paddy test, umbrella sedge; settings: applied to paddy water, visual rating after 13 to 15 days, scale 0 (no effect) to 100 (complete control)
# Procedure, shortened: as §2
SMILES,"Plant response rating, Corn (corn (Zea mays); 125 g ai/ha)","Plant response rating, Corn (corn (Zea mays); 500 g ai/ha)","Plant response rating, Pigweed ([1]; 125 g ai/ha)","Plant response rating, Pigweed ([1]; 500 g ai/ha)","Plant response rating, Foxtail, Giant ([2]; 125 g ai/ha)","Plant response rating, Foxtail, Giant ([2]; 500 g ai/ha)","Plant response rating, Wheat ([3]; 125 g ai/ha)","Plant response rating, Wheat ([3]; 500 g ai/ha)","Plant response rating, Foxtail, Giant ([4]; 125 g ai/ha)","Plant response rating, Foxtail, Giant ([4]; 500 g ai/ha)","Plant response rating, Ryegrass, Italian ([5]; 125 g ai/ha)","Plant response rating, Ryegrass, Italian ([5]; 500 g ai/ha)","Plant response rating, Barnyardgrass ([6]; 125 g ai/ha)","Plant response rating, Barnyardgrass ([6]; 500 g ai/ha)","Plant response rating, Ragweed ([7]; 125 g ai/ha)","Plant response rating, Ragweed ([7]; 500 g ai/ha)","Plant response rating, Blackgrass ([8]; 125 g ai/ha)","Plant response rating, Blackgrass ([8]; 500 g ai/ha)","Plant response rating, Ragweed ([9]; 125 g ai/ha)","Plant response rating, Ragweed ([9]; 500 g ai/ha)",also measured
"O=C1NCC(c2cccc(Oc3ccc(F)cn3)c2)C1C(=O)Nc1ccccc1F (single isomer, unassigned) [Compound 49]",30,40,0,20,90,90,0,40,70,90,40,70,90,90,0,40,0,40,0,40,"Plant response rating, Kochia (kochia (Kochia scoparia) [10]; 125 g ai/ha): 20; Plant response rating, Kochia (kochia (Kochia scoparia) [10]; 500 g ai/ha): 70; Plant response rating, Ducksalad (Flood) ([11]; 250 g ai/ha): 100; Plant response rating, Kochia (kochia (Kochia scoparia) [12]; 125 g ai/ha): 0; Plant response rating, Kochia (kochia (Kochia scoparia) [12]; 500 g ai/ha): 0; Plant response rating, Barnyardgrass ([13]; 125 g ai/ha): 80; Plant response rating, Barnyardgrass ([13]; 500 g ai/ha): 90; Plant response rating, Barnyardgrass (Flood) ([14]; 250 g ai/ha): 0; Plant response rating, Ryegrass, Italian ([15]; 125 g ai/ha): 0; Plant response rating, Ryegrass, Italian ([15]; 500 g ai/ha): 50; Plant response rating, Rice (Flood) (rice (Oryza sativa); 250 g ai/ha): 0; Plant response rating, Pigweed ([16]; 125 g ai/ha): 0; Plant response rating, Pigweed ([16]; 500 g ai/ha): 20; Plant response rating, Galium ([17]; 125 g ai/ha): 20; Plant response rating, Galium ([17]; 500 g ai/ha): 70; Plant response rating, Sedge, Umbrella (Flood) ([18]; 250 g ai/ha): 0"
O=C1NCC(c2cccc(Cn3ccc(C(F)(F)F)n3)c2)C1C(=O)Nc1ccc(F)c(F)c1F (stereo not drawn) [Compound 22],0,0,0,0,40,80,0,0,20,60,0,0,0,30,0,0,0,0,0,0,"Plant response rating, Kochia (kochia (Kochia scoparia) [10]; 125 g ai/ha): 0; Plant response rating, Kochia (kochia (Kochia scoparia) [10]; 500 g ai/ha): 0; Plant response rating, Ducksalad (Flood) ([11]; 500 g ai/ha): 0; Plant response rating, Kochia (kochia (Kochia scoparia) [12]; 125 g ai/ha): 0; Plant response rating, Kochia (kochia (Kochia scoparia) [12]; 500 g ai/ha): 0; Plant response rating, Barnyardgrass ([13]; 125 g ai/ha): 40; Plant response rating, Barnyardgrass ([13]; 500 g ai/ha): 60; Plant response rating, Barnyardgrass (Flood) ([14]; 500 g ai/ha): 30; Plant response rating, Ryegrass, Italian ([15]; 125 g ai/ha): 0; Plant response rating, Ryegrass, Italian ([15]; 500 g ai/ha): 0; Plant response rating, Rice (Flood) (rice (Oryza sativa); 500 g ai/ha): 0; Plant response rating, Pigweed ([16]; 125 g ai/ha): 0; Plant response rating, Pigweed ([16]; 500 g ai/ha): 0; Plant response rating, Galium ([17]; 125 g ai/ha): 0; Plant response rating, Galium ([17]; 500 g ai/ha): 0; Plant response rating, Sedge, Umbrella (Flood) ([18]; 500 g ai/ha): 0"
O=C1NCC(c2cccc(OCc3ccccc3)c2)C1C(=O)Nc1cccc(F)c1F (stereo not drawn) [Compound 65],0,0,0,0,0,0,0,0,0,0,0,0,0,0,0,0,0,0,0,0,"Plant response rating, Kochia (kochia (Kochia scoparia) [10]; 125 g ai/ha): 0; Plant response rating, Kochia (kochia (Kochia scoparia) [10]; 500 g ai/ha): 0; Plant response rating, Ducksalad (Flood) ([11]; 500 g ai/ha): 0; Plant response rating, Kochia (kochia (Kochia scoparia) [12]; 125 g ai/ha): 0; Plant response rating, Kochia (kochia (Kochia scoparia) [12]; 500 g ai/ha): 0; Plant response rating, Barnyardgrass ([13]; 125 g ai/ha): 0; Plant response rating, Barnyardgrass ([13]; 500 g ai/ha): 0; Plant response rating, Barnyardgrass (Flood) ([14]; 500 g ai/ha): 0; Plant response rating, Ryegrass, Italian ([15]; 125 g ai/ha): 0; Plant response rating, Ryegrass, Italian ([15]; 500 g ai/ha): 0; Plant response rating, Rice (Flood) (rice (Oryza sativa); 500 g ai/ha): 0; Plant response rating, Pigweed ([16]; 125 g ai/ha): 0; Plant response rating, Pigweed ([16]; 500 g ai/ha): 0; Plant response rating, Galium ([17]; 125 g ai/ha): 0; Plant response rating, Galium ([17]; 500 g ai/ha): 0; Plant response rating, Sedge, Umbrella (Flood) ([18]; 500 g ai/ha): 0"
